This passage reports IC50 results from US8293781B2, “Indole derivatives having cPLA2 inhibiting activity and applications and production methods of the same” (Daiichi Sankyo Company, Limited, priority 2007, dated 2012).

Where a name gives a salt, the structure may show the parent alone.

The assay deals with T1, cPLA2 crudely purified from the cytoplasm fraction of U937 (Homo sapiens, UniProt P47712).
T1 construct: cPLA2 crudely purified from the cytoplasm fraction of U937; endogenous in cells; host or cells: U937 cells (cytoplasm fraction, crude purification)
T1 sequence (P47712 1-749): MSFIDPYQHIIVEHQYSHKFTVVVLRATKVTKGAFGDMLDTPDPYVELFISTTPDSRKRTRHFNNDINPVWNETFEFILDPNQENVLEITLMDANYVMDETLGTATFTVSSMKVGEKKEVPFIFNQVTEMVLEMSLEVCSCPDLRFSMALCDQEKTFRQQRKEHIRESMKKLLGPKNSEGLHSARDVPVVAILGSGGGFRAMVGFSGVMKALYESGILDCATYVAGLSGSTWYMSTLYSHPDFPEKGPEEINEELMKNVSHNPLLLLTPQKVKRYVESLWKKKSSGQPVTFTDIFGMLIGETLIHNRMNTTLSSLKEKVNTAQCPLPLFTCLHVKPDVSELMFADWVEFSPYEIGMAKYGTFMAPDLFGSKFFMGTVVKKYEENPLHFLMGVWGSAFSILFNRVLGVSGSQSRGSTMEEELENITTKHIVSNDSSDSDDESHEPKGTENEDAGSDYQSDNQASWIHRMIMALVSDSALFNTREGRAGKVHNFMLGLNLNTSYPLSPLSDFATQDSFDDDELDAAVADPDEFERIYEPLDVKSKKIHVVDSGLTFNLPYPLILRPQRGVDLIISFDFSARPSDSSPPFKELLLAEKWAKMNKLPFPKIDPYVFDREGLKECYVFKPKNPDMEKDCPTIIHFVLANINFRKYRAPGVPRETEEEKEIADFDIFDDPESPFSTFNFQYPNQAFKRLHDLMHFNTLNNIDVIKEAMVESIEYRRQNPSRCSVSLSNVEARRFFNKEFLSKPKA
The experiment in a line: Measurement of cPLA2 inhibitory activity (release of [14C]-arachidonic acid from phosphatidyl choline liposome). The format is biochemical. To be noted: cPLA2 from U937 cytoplasm fraction, [14C]arachidonyl-phosphatidyl choline liposome, 37° C., 60 minutes; read-out: cPLA2 inhibitory activity, 50% inhibiting concentration IC50. In short, it runs like this: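 The read-out is radioactivity from extracted [14C]-arachidonic acid, freed over 60 min at 37° C from liposomes of 14C-arachidonyl phosphatidylcholine (10 μM PC in the added solution). Buffer was 50 mM HEPES pH 7.5 with Ca2+, DTT, NaCl and BSA. IC50 was derived from inhibition relative to enzyme control minus no-enzyme control.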

`O=C(O)CCc1ccc2c(c1)c(CCc1ccccc1)cn2-c1ccc(OCCc2ccncc2)cc1` [Example 255, 3-{3-(2-phenylethyl)-1-[4-(2-pyridin-4-ylethoxy)phenyl]-1H-indol-5-yl}propanoic acid]: the IC50 worked out at 12 nM.

Consider `O=C(O)CCc1ccc2c(c1)c(CCc1ccccc1)cn2-c1ccc(OCCCc2cccnc2)cc1` [Example 257, 3-{3-(2-phenylethyl)-1-[4-(3-pyridin-3-ylpropoxy)phenyl]-1H-indol-5-yl}propanoic acid], for which the IC50 was determined as 7 nM. In the case of `O=C(O)CCc1ccc2c(c1)c(CCc1ccccc1)cn2-c1ccc(OCCCc2cccnc2)cc1` [Example 258, 3-{3-(2-phenylethyl)-1-[4-(3-pyridin-3-ylpropoxy)phenyl]-1H-indol-5-yl}propanoic acid hydrochloride], the IC50 worked out at 2 nM.

With `O=C(O)CCc1ccc2c(c1)c(CCc1ccccc1)cn2-c1ccc(OCCCc2ccncc2)cc1` [Example 260, 3-{3-(2-phenylethyl)-1-[4-(3-pyridin-4-ylpropoxy)phenyl]-1H-indol-5-yl}propanoic acid], the IC50 turned out to be 8 nM.

For the molecule `O=C(O)/C=C/c1ccc2c(c1)c(CCc1ccccn1)cn2-c1ccccc1` [Example 263, (2E)-3-[1-phenyl-3-(2-pyridin-2-ylethyl)-1H-indol-5-yl]-2-propenoic acid], the IC50 was found to be 1440 nM. In the case of `O=C(O)CCc1ccc2c(c1)c(CCc1ccccn1)cn2-c1ccccc1` [Example 264, 3-[1-phenyl-3-(2-pyridin-2-ylethyl)-1H-indol-5-yl]propanoic acid], the IC50 came out at 338 nM. Consider `O=C(O)/C=C/c1ccc2c(c1)c(CCc1ccccn1)cn2-c1ccc(OCc2ccccc2)cc1` [Example 267, (2E)-3-{1-[4-(benzyloxy)phenyl]-3-(2-pyridin-2-ylethyl)-1H-indol-5-yl}-2-propenoic acid], for which the IC50 amounted to 110 nM.

Consider `O=C(O)CCc1ccc2c(c1)c(CCc1ccccn1)cn2-c1ccc(OCc2ccccc2)cc1` [Example 268, 3-{1-[4-(benzyloxy)phenyl]-3-(2-pyridin-2-ylethyl)-1H-indol-5-yl}propanoic acid], for which the IC50 came out at 19 nM. The same measure for `O=C(O)CCc1ccc2c(c1)c(CCc1ccccn1)cn2-c1ccc(O)cc1` [Example 269, 3-[1-(4-hydroxyphenyl)-3-(2-pyridin-2-ylethyl)-1H-indol-5-yl]propanoic acid hydrochloride]: 77 nM; for `O=C(O)/C=C/c1ccc2c(c1)c(CCc1ccccn1)cn2-c1ccc(O)cc1` [Example 271, (2E)-3-[1-(4-hydroxyphenyl)-3-(2-pyridin-2-ylethyl)-1H-indol-5-yl]-2-propenoic acid]: 357 nM; for `O=C(O)CCc1ccc2c(c1)c(CCc1ccccn1)cn2-c1ccc(Oc2ccccc2)cc1` [Example 275, 3-[1-(4-phenoxyphenyl)-3-(2-pyridin-2-ylethyl)-1H-indol-5-yl]propanoic acid hydrochloride]: 12 nM.

In the case of `O=C(O)CCc1ccc2c(c1)c(CCc1ccccn1)cn2-c1ccc(OC(F)F)cc1` [Example 277, 3-{1-[4-(difluoromethoxy)phenyl]-3-(2-pyridin-2-ylethyl)-1H-indol-5-yl}propanoic acid hydrochloride], the IC50 came to 98 nM. Consider `O=C(O)CCc1ccc2c(c1)c(CCc1ccccn1)cn2-c1ccc(OCCO)cc1` [Example 279, 3-{1-[4-(2-hydroxyethoxy)phenyl]-3-(2-pyridin-2-ylethyl)-1H-indol-5-yl}propanoic acid hydrochloride], for which the IC50 was found to be 245 nM.

Take `O=C(O)CCc1ccc2c(c1)c(CCc1ccccn1)cn2-c1cccc(OCc2ccccc2)c1` [Example 281, 3-{1-[3-(benzyloxy)phenyl]-3-(2-pyridin-2-ylethyl)-1H-indol-5-yl}propanoic acid hydrochloride]: the IC50 turned out to be 278 nM. The same measure for `O=C(O)CCc1ccc2c(c1)c(CCc1ccccn1)cn2-c1cccc(O)c1` [Example 282, 3-[1-(3-hydroxyphenyl)-3-(2-pyridin-2-ylethyl)-1H-indol-5-yl]propanoic acid hydrochloride]: 582 nM; for `O=C(CCc1ccc2c(c1)c(CCc1ccccc1)cn2-c1ccc(O)cc1)NO` [Example 284, N-hydroxy-3-[1-(4-hydroxyphenyl)-3-(2-phenylethyl)-1H-indol-5-yl]propanamide]: more than 3000 nM; for `O=C(CCc1ccc2c(c1)c(CCc1ccccc1)cn2-c1ccc(OC(F)F)cc1)NO` [Example 286, 3-{1-[4-(difluoromethoxy)phenyl]-3-(2-phenylethyl)-1H-indol-5-yl}-N-hydroxypropanamide]: more than 3000 nM. To `O=C(O)CCc1ccc2c(c1)c(CCc1ccccc1)cn2-c1cc(F)c(OCc2ccccc2)c(F)c1` [Example 288, 3-{1-[4-(benzyloxy)-3,5-difluorophenyl]-3-(2-phenylethyl)-1H-indol-5-yl}propanoic acid 2-amino-2-(hydroxymethyl)propane-1,3-diol salt (1:1)] belongs 264 nM; to `O=C(O)CCc1ccc2c(c1)c(CCc1ccccc1)cn2-c1cc(F)c(O)c(F)c1` [Example 289, 3-[1-(3,5-difluoro-4-hydroxyphenyl)-3-(2-phenylethyl)-1H-indol-5-yl]propanoic acid], 182 nM. To `O=C(O)CCc1ccc2c(c1)c(CCc1ccccc1)cn2-c1ccc(COc2ccc(F)cc2)cc1` [Example 291, 3-[1-{4-[(4-fluorophenoxy)methyl]phenyl}-3-(2-phenylethyl)-1H-indol-5-yl]propanoic acid 2-amino-2-(hydroxymethyl)propane-1,3-diol salt (1:1)] belongs 83 nM; to `O=C(O)CCc1ccc2c(c1)c(CCc1ccccc1)cn2-c1ccc(COC(F)F)cc1` [Example 293, 3-[1-{4-[(difluoromethoxy)methyl]phenyl}-3-(2-phenylethyl)-1H-indol-5-yl]propanoic acid], 191 nM; to `CC(O)c1ccc(-n2cc(CCc3ccccc3)c3cc(CCC(=O)O)ccc32)cc1` (centres unmarked) [Example 295, 3-{1-[4-(1-hydroxyethyl)phenyl]-3-(2-phenylethyl)-1H-indol-5-yl}propanoic acid 2-amino-2-(hydroxymethyl)propane-1,3-diol salt (1:1)], 755 nM. For the molecule `O=C(O)CCc1ccc2c(c1)c(CCc1ccccn1)cn2-c1cc(F)c(OCc2ccccc2)c(F)c1` [Example 297, 3-{1-[4-(benzyloxy)-3,5-difluorophenyl]-3-(2-pyridin-2-ylethyl)-1H-indol-5-yl}propanoic acid], the IC50 came out at 442 nM. To `O=C(O)CCc1ccc2c(c1)c(CCc1ccccn1)cn2-c1cc(F)c(O)c(F)c1` [Example 298, 3-[1-(3,5-difluoro-4-hydroxyphenyl)-3-(2-pyridin-2-ylethyl)-1H-indol-5-yl]propanoic acid hydrochloride] belongs 923 nM.

On to `O=C(O)CCc1ccc2c(c1)c(CCc1ccccn1)cn2-c1ccc(COc2ccc(F)cc2)cc1` [Example 300, 3-[1-{4-[(4-fluorophenoxy)methyl]phenyl}-3-(2-pyridin-2-ylethyl)-1H-indol-5-yl]propanoic acid hydrochloride], for which the IC50 was found to be 381 nM. As for `O=C(O)CCc1ccc2c(c1)c(CCc1ccccn1)cn2-c1ccc(COC(F)F)cc1` [Example 302, 3-[1-{4-[(difluoromethoxy)methyl]phenyl}-3-(2-pyridin-2-ylethyl)-1H-indol-5-yl]propanoic acid hydrochloride], the IC50 was 764 nM.
